Reference: US8455469B2, “Use of norgestimate as a selective inhibitor of TRPC3, TRPC6 and TRPC7 ion channels” (Sanofi, priority 2007, dated 2013)
“Also recorded” adds a separate entry of the source.

Experiments:
Format in all cases: cell-based
TRPC4 = target: T1, TRPC4 (Homo sapiens, UniProt Q9UBN4); assay: FLIPR Ca2+ influx measurement, trypsin-stimulated TRPC4 HEK293 cells; conditions: 200 nM trypsin
T1 construct: expressed in transfected cells; host or cells: HEK293 (inducible expression)
T1 sequence (Q9UBN4 1-977): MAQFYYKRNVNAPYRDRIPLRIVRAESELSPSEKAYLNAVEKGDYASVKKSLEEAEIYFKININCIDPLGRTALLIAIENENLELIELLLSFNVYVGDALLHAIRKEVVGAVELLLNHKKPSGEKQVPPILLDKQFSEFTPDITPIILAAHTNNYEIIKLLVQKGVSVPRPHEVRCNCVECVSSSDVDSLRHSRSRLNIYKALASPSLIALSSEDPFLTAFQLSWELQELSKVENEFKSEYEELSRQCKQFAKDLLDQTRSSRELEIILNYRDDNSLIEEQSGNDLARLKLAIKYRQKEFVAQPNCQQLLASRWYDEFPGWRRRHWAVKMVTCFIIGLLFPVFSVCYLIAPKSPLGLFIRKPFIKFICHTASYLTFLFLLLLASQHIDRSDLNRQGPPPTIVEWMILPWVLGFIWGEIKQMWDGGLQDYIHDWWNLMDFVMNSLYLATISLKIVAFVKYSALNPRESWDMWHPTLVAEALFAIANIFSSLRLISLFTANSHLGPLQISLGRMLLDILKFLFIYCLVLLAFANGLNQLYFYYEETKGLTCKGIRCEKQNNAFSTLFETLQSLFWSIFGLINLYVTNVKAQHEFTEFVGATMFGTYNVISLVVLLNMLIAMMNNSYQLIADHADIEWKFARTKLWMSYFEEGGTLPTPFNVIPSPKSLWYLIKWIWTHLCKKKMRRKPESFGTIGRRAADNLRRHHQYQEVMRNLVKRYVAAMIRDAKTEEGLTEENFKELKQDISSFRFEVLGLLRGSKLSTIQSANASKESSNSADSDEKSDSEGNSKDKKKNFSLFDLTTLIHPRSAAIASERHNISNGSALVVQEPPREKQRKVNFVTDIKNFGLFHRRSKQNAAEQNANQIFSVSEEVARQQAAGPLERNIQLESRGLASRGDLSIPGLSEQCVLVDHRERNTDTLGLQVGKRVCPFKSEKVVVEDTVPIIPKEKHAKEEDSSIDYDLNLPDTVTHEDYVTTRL
Text: In general, cells are provided which express a TRPC channel. Such cells can be produced using genetic methods known to a person skilled in the art. After having induced the expression of the TRPC channel, cells are usually plated into e.g. microtiter plates and grown. Usually the cells grow at the bottom of multiwell plates and are fixed. Thereafter, the cells are generally washed and loaded with a dye in a suitable loading buffer, preferably with a fluorescent dye such as fluo4am. After having removed the loading buffer, the cells are incubated with the test compound or modulator, in particular with a biochemical or chemical test compound as described above, e.g. in the form of a chemical compound library. Ca^2+ measurements can be carried out using e.g. a Fluorescence Imaging Plate Reader (FLIPR). To stimulate Ca^2+ influx through the TRPC channel a channel activator such as OAG should generally be applied.
When these experiments were performed, no direct physiological stimuli of TRPC4 and TRPC5 were known. Therefore, both channels had to be stimulated indirectly, e.g. by application of trypsin, a protease-activated receptor (PAR) stimulating protease. […] Kinetics and quantity of calcium store release in cells treated with 30 μM norgestimate were not changed compared to untreated cells. […]

[1] = system: protease-activated receptor (PAR); assay: Calcium release from ER in non-induced TRPC5 HEK293 FITR cells (PAR antagonism control); conditions: 30 μM norgestimate, 10 min preincubation
Method: When these experiments were performed, no direct physiological stimuli of TRPC4 and TRPC5 were known. Therefore, both channels had to be stimulated indirectly, e.g. by application of trypsin, a protease-activated receptor (PAR) stimulating protease. […] PAR are G protein-coupled and their activation leads to calcium store depletion from endoplasmic reticulum (ER). This so called phosphatidylinositol (PI) response is independent of the channel's presence but consequently leads to activation of store-operated channels like TRPC4 and TRPC5. Basic prerequisite to measure the effect of norgestimate on both channels under these conditions is to exclude PAR antagonism of this potential channel inhibitor. […] Kinetics and quantity of calcium store release in cells treated with 30 μM norgestimate were not changed compared to untreated cells. Therefore, norgestimate is not a PAR antagonist and TRPC4 and TRPC5 activation via PAR stimulation is suitable to measure the channels inhibition by norgestimate.

V1 receptor = target: T2, V1 receptor (Rattus norvegicus, UniProt P30560); assay: Calcium imaging of fura-2-loaded A7r5 cells stimulated with AVP; conditions: 10 μM, 5 min preincubation, calcium-free solution, 100 nM AVP
T2 construct: endogenous in cells; host or cells: A7r5 (rat aortic smooth muscle)
T2 sequence (P30560 whole entry): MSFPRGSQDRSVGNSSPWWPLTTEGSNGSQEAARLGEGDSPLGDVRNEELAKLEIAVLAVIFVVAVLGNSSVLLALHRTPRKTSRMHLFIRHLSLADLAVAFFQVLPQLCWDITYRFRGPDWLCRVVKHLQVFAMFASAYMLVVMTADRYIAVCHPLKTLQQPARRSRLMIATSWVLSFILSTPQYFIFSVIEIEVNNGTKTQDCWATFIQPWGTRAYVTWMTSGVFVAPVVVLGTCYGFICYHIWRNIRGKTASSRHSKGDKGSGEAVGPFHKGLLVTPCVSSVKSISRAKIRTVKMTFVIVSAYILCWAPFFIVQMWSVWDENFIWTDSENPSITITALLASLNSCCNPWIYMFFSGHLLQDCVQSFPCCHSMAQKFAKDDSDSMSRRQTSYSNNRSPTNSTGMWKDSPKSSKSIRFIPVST
Method: The A7r5 cell line (derived from rat thoracic aorta smooth muscle cells) is a model system to investigate endogenous TRPC channels (Jung et al., 2002; Soboloff et al., 2005). The channels were indirectly stimulated by Arg^8-vasopressin (AVP), a vasoconstricting peptide that activates the endogenous vasopressin V1A receptor in these cells (Thibonnier et al., 1991).
Time-dependent changes of [Ca^2+]i; of fura-2-loaded A7r5 cells. Cells were preincubated with or without (control) 10 μM norgestimate (NG) in calcium-free standard extracellular solution (1 mM EGTA) for 5 min before stimulating the V1 receptor by application of 100 nM AVP. Data are represented as means of 33 cells (control) and 36 cells (10 μM norgestimate). Measurements were performed using a standard imaging setup (TILL Photonics, Gräfelfing, Germany).

C#C[C@]1(OC(C)=O)CC[C@H]2[C@@H]3CCC4=C/C(=N/O)CC[C@@H]4[C@H]3CC[C@@]21CC [norgestimate, D-17β-acetoxy-B-ethyl-17α ethinyl-gon-4-en-3-one oxime]
inhibitory effect on TRPC4-mediated Ca2+ influx (TRPC4; 30 μM norgestimate): only small inhibitory effects; also recorded: slightly reduced | IC50 (TRPC4; FLIPR, n=2): > 30 µM | kinetics and quantity of calcium store release compared to untreated cells [1]: not changed | effect on V1 receptors (AVP-evoked [Ca2+]i) (V1 receptor): does not generally suppress
